Assays:
[1] = tested on: LLC-PK1 cells; assay: Conventional transport assay (CTA), diffusion over a cellular monolayer; assay type: in vitro ADME, porcine; conditions: zosuquidar present, both directions, 100 nM
Source text: We first sought to investigate whether buparlisib (Fig. 1A) is transported by P-gp or BCRP in vitro using concentration equilibrium transport assays (CETAs). CETAs are sensitive assays to determine translocation over a cellular monolayer and are frequently used to determine substrate affinity for ABC transporters by comparing cell lines that overexpress ABC transporters with their parental counterparts[24]–[26]. Since P-gp and BCRP are apically located transporters, a prerequisite for detecting substrate affinity for these transporters in a CETA is the capacity of a molecule to penetrate cell membranes. We therefore first confirmed that buparlisib could efficiently diffuse over a cellular monolayer using a conventional transwell set-up. […]
Conventional bidirectional transport assays (CTAs) and concentration equilibrium transport assays (CETAs) were performed as described previously. […] Transwell leakiness was determined as Carboxyl-[^14C]-inulin translocation exceeding 1.5% per hour and these wells were excluded from the analysis.
To prepare buparlisib transport assay samples for LC-MS/MS analysis, 10 μL medium samples were mixed with 30 μL of acetonitrile:formic acid (100:1 v/v). After centrifugation, the supernatant was 5-fold diluted in water and the buparlisib concentration was measured using an LC-MS/MS system as described below.

[2] = biological target: T1, human BCRP (ABCG2) (Homo sapiens, UniProt Q9UNQ0); assay: Concentration equilibrium transport assay (CETA), MDCK-BCRP; assay type: in vitro ADME; conditions: 100 nM
T1 construct: expressed in transfected cells; host or cells: MDCK (MDCK-BCRP)
T1 sequence (Q9UNQ0 1-655): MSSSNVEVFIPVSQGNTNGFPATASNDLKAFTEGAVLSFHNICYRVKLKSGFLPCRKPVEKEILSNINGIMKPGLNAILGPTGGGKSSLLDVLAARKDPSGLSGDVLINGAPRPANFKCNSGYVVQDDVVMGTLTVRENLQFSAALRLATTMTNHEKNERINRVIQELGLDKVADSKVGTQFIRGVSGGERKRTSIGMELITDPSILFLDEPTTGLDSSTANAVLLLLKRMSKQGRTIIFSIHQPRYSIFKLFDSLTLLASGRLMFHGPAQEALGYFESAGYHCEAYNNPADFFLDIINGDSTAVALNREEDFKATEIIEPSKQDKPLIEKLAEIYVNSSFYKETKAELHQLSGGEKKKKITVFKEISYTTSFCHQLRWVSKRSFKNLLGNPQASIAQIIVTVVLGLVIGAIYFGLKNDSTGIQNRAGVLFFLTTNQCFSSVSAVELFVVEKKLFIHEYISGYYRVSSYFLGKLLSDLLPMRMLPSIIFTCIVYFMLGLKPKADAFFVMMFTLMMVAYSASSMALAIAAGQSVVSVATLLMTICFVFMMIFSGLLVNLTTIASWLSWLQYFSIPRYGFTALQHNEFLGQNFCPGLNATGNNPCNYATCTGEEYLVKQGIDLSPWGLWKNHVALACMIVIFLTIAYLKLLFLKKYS
Source text: Figure 1 Analysis of buparlisib substrate affinity for ABC transporters using in vitro transport assays. (A) The chemical structure of buparlisib. (B) A conventional transport assay (CTA) using LLC-PK1 cells in presence of zosuquidar to block endogenous (porcine) P-gp activity. […] (C) Concentration equilibrium transport assays (CETAs) using MDCK or LLC cells that overexpress murine BCRP, (Bcrp1), human BCRP, murine P-gp (Mdr1a) or human P-gp (MDR1). […] The P-gp inhibitor zosuquidar was used in all MDCK cell lines to inhibit endogenous P-gp activity and in LLC cell lines to validate possible P-gp-mediated translocations. […]
Conventional bidirectional transport assays (CTAs) and concentration equilibrium transport assays (CETAs) were performed as described previously. […] Transwell leakiness was determined as Carboxyl-[^14C]-inulin translocation exceeding 1.5% per hour and these wells were excluded from the analysis. […]
As described in detail before, CETA results were analysed with the General linear model repeated measures procedure of SPSS (v22; SPSS Inc, Chicago, IL)[25]. […] The standard error of the oral bioavailability was calculated using the formula below: SEF=F(SEAUCp.o./AUCp.o.)^2+(SEAUCi.v./AUCi.v.)^2 Buparlisib concentrations in WT and transporter knockout mice in vivo were compared using one-way analysis of variance followed by post hoc Bonferroni tests. […]

[3] = humans; cited from earlier work

For Nc1cc(C(F)(F)F)c(-c2cc(N3CCOCC3)nc(N3CCOCC3)n2)cn1 [buparlisib], the “time to plateau to almost complete equilibrium between apical and basal compartments” value [1] is listed as no more than 4 h, the “substrate of human BCRP” value [2] is listed as “not a substrate” and the maximum tolerated dose [3] is listed as 100 mg per day.

Reference: PMC6050274, “Buparlisib is a brain penetrable pan-PI3K inhibitor” (Scientific Reports, 2018)
